From patent US10246442B2, “4-Aminoquinazolin compounds as prolyl hydroxylase inhibitors” (JANSSEN PHARMACEUTICA NV, priority 2011, dated 2019) come the findings set out here.

One assay deals with HIF1-α, Hela cells. The assay is described as follows: Cellular assay for HIF1-α in Hela cells. The assay is classed as cell-based. To be noted: Homo sapiens, 100 μM compound, 6 hours, percent of HIF stimulation relative to assay control compound 7-[(4-Chloro-phenyl)-(5-methyl-isoxazol-3-ylamino)-methyl]-quinolin-8-ol. As to the method: Cellular Assay for HIF1-α
Hela cells (ATCC, Manassas, Va.) were plated in 96-well plates at 20,000 cells per well in 100 μl of DMEM containing 10% fetal bovine serum, 1% non-essential amino acids, 50 IU/mL of penicillin and 50 μg/mL of streptomycin (all cell culture reagents from Invitrogen, Carlsbad, Calif.). 24 hours after plating, changed media to 100 ul of DMEM without 10% fetal bovine serum, 1.1 μl of the stock solution for each compound was added and incubated for 6 hours. All compounds were tested with a final compound concentration of 100 μM. The supernatant was removed and the cells were lysed in 55 μl of MSD lysis buffer containing protease inhibitors. 50 μl of the cell lysate was then transferred to a blocked MSD human HIF-1α detection plate (Meso-Scale Discovery, Gaithersburg, Md., as per manufacturers protocol), and incubated at room temperature on an orbital shaker for 2 hour. After 3 washes in PBS, 25 μl of 20 nM anti-HIF1α a detection antibody was added and incubated for 1 hour at room temperature on an orbital shaker. After 3 washes in PBS, 150 μl of 1× read buffer was added and the plate was then read on a MSD SECTOR instrument. Data was analyzed by determining the percent of HIF stimulation in the presence of 100 μM compound relative to an assay control compound, 7-[(4-Chloro-phenyl)-(5-methyl-isoxazol-3-ylamino)-methyl]-quinolin-8-ol.

Assay [1] has as its system Erythropoietin secretion, Hep-3B cells. Briefly: Cellular assay: EPO secretion in Hep-3B cells. To be noted: Homo sapiens, Hep3B, 100 μM compound, 24 hours, percent of EPO secretion relative to assay control compound 7-[(4-Chloro-phenyl)-(5-methyl-isoxazol-3-ylamino)-methyl]-quinolin-8-ol, read-out: Cellular % EPO Stimulation. Format: cell-based. The method in brief:
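Compounds at 100 μM final were added to Hep-3B cells 24 h after plating and left for 24 h. Secreted EPO in supernatant measured by MSD electrochemiluminescence immunoassay. Reported as percent EPO secretion relative to an 8-hydroxyquinoline reference control compound.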

A further assay deals with PHD2181-417 (Homo sapiens (Human), UniProt Q9GZT9). The assay is described as follows: PHD enzymatic assay ([14C]-succinic acid production). The assay is classed as biochemical. As to conditions: purified PHD2181-417, HIF-1α peptide substrate, 30 min pre-incubation; average of results. An outline of the steps: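 Recombinant human PHD2 (aa 181-417, E. coli-expressed, tags cleaved) with peptide substrate (10 μM) and [5-14C]-2-oxoglutarate in Tris pH 7.5 with catalase, DTT and ascorbate, 10 min reaction after 30 min compound pre-incubation; compounds at 100 μM final, 1% DMSO. [14C]-succinate separated by DNP precipitation and beta-counted; IC50 from three-parameter logistic fit.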

Structures are written as SMILES.

Chain of PHD2181-417 (Q9GZT9 181-417): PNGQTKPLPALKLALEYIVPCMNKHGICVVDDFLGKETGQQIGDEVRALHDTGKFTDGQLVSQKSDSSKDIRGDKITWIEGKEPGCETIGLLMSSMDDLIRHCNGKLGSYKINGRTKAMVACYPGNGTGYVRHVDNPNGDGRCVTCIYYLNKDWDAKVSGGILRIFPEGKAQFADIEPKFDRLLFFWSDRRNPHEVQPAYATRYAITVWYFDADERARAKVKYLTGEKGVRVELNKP

As to `O=C(O)c1cnn(-c2nc(N3CCCC3)c3ccc(Oc4ccccc4)cc3n2)c1` [Example 78, 1-(7-Phenoxy-4-(pyrrolidin-1-yl)quinazolin-2-yl)-1H-pyrazole-4-carboxylic acid], the activation at 100 µM is 64% in the assay on HIF1-α, Hela cells and 38% in assay [1]. In addition, at PHD2181-417, the “Enzyme pIC50” value is on record as 7.3.
As to `CCN(CC)c1nc(-n2cc(C(=O)O)cn2)nc2ccc(N3CCCCC3)cc12` [Example 88, 1-(4-(Diethylamino)-6-(piperidin-1-yl)quinazolin-2-yl)-1H-pyrazole-4-carboxylic acid], the activation at 100 µM in the assay with HIF1-α, Hela cells amounted to 122%; in assay [1], 94%. Also, on PHD2181-417, the “Enzyme pIC50” value worked out at 7.0.
With `O=C(O)c1cnn(-c2nc(NC3CCCCC3)c3ccc(Oc4ccccc4)cc3n2)c1` [Example 97, 1-(4-(Cyclohexylamino)-7-phenoxyquinazolin-2-yl)-1H-pyrazole-4-carboxylic acid], the activation at 100 µM in the assay with HIF1-α, Hela cells amounted to 55%. The “Enzyme pIC50” value at PHD2181-417 is reported as 7.0.
For `O=C(O)c1cnn(-c2nc(NCC3CC3)c3ccc(Oc4ccccc4)cc3n2)c1` [Example 98, 1-(4-((Cyclopropylmethyl)amino)-7-phenoxyquinazolin-2-yl)-1H-pyrazole-4-carboxylic acid], in that order: 46% and 6.7.
For `CC(C)(C)Nc1nc(-n2cc(C(=O)O)cn2)nc2cc(Oc3ccccc3)ccc12` [Example 99, 1-(4-(tert-Butylamino)-7-phenoxyquinazolin-2-yl)-1H-pyrazole-4-carboxylic acid], in that order: 31% and 6.3.
